Experimental data as given in ChEMBL document CHEMBL4507304, “Data for DCP probe TP-021” (2021).

Assays:
[1] = system: Receptor-type tyrosine-protein kinase FLT3 (Homo sapiens), P36888 [D835Y]; details: Compound concentration 1000.0 nM
[2] = molecular target: Serine/threonine-protein kinase Sgk1 (Homo sapiens) (UniProt O00141); details: Compound concentration 1000.0 nM
[3] = molecular target: Tyrosine-protein kinase receptor Tie-1 (Homo sapiens) (UniProt P35590); details: Compound concentration 1000.0 nM
[4] = molecular target: Vascular endothelial growth factor receptor 1 (Homo sapiens) (UniProt P17948); details: Compound concentration 1000.0 nM
[5] = molecular target: Serine/threonine-protein kinase NIM1 (Homo sapiens) (UniProt Q8IY84); details: Compound concentration 1000.0 nM
[6] = molecular target: Fibroblast growth factor receptor 3 (Homo sapiens) (UniProt P22607); details: Compound concentration 1000.0 nM
[7] = molecular target: Serine/threonine-protein kinase ULK3 (Homo sapiens) (UniProt Q6PHR2); details: Compound concentration 1000.0 nM
[8] = molecular target: Epithelial discoidin domain-containing receptor 1 (Homo sapiens) (UniProt Q08345); details: Compound concentration 1000.0 nM
[9] = molecular target: TGF-beta receptor type-1 (Homo sapiens) (UniProt P36897); details: Compound concentration 1000.0 nM
[10] = molecular target: Dual specificity protein kinase CLK1 (Homo sapiens) (UniProt P49759); details: Compound concentration 1000.0 nM
[11] = molecular target: Alpha-2C adrenergic receptor (Homo sapiens) (UniProt P18825); details: Compound concentration 10.0 uM
[12] = molecular target: Serine/threonine-protein kinase haspin (Homo sapiens) (UniProt Q8TF76); details: Compound concentration 1000.0 nM
[13] = molecular target: Serine/threonine-protein kinase MARK1 (Homo sapiens) (UniProt Q9P0L2); details: Compound concentration 1000.0 nM
[14] = molecular target: Serine/threonine-protein kinase 32C (Homo sapiens) (UniProt Q86UX6); details: Compound concentration 1000.0 nM
[15] = molecular target: Dual specificity mitogen-activated protein kinase kinase 7 (Homo sapiens) (UniProt O14733); details: Compound concentration 1000.0 nM
[16] = molecular target: Activated CDC42 kinase 1 (Homo sapiens) (UniProt Q07912); details: Compound concentration 1000.0 nM
[17] = molecular target: NT-3 growth factor receptor (Homo sapiens) (UniProt Q16288); details: Compound concentration 1000.0 nM
[18] = molecular target: Tyrosine-protein kinase CSK (Homo sapiens) (UniProt P41240); details: Compound concentration 1000.0 nM
[19] = system: Phosphatidylinositol 4,5-bisphosphate 3-kinase catalytic subunit alpha isoform (Homo sapiens), P42336 [E542K]; details: Compound concentration 1000.0 nM
[20] = molecular target: Serine/threonine-protein kinase Nek9 (Homo sapiens) (UniProt Q8TD19); details: Compound concentration 1000.0 nM
[21] = molecular target: Serine/threonine-protein kinase STK11 (Homo sapiens) (UniProt Q15831); details: Compound concentration 1000.0 nM
[22] = molecular target: cAMP-dependent protein kinase catalytic subunit beta (Homo sapiens) (UniProt P22694); details: Compound concentration 1000.0 nM
[23] = molecular target: Mitogen-activated protein kinase 14 (Homo sapiens) (UniProt Q16539); details: Compound concentration 1000.0 nM
[24] = molecular target: Ribosomal protein S6 kinase alpha-3 (Homo sapiens) (UniProt P51812); details: Compound concentration 1000.0 nM
[25] = molecular target: MAP kinase-interacting serine/threonine-protein kinase 1 (Homo sapiens) (UniProt Q9BUB5); details: Compound concentration 1000.0 nM
MAP kinase-interacting serine/threonine-protein kinase 1 (Homo sapiens), sequence (Q9BUB5 whole entry, looked up, the tested form may be a part): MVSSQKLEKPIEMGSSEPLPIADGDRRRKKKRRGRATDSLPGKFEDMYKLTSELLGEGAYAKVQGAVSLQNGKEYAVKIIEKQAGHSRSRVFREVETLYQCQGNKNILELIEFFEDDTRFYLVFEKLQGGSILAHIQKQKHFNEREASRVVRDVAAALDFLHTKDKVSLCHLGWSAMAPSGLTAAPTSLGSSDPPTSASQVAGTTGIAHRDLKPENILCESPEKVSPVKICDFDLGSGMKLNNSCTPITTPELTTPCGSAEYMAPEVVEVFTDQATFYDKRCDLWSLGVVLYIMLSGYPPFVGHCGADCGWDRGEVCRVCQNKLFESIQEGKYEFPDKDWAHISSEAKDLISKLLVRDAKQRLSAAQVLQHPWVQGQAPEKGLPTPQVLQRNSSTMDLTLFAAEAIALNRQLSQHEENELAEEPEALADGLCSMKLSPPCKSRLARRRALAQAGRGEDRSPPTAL

[26] = molecular target: Ankyrin repeat and protein kinase domain-containing protein 1 (Homo sapiens) (UniProt Q8NFD2); details: Compound concentration 1000.0 nM
Ankyrin repeat and protein kinase domain-containing protein 1 (Homo sapiens), sequence (Q8NFD2 whole entry, the tested form may be a part): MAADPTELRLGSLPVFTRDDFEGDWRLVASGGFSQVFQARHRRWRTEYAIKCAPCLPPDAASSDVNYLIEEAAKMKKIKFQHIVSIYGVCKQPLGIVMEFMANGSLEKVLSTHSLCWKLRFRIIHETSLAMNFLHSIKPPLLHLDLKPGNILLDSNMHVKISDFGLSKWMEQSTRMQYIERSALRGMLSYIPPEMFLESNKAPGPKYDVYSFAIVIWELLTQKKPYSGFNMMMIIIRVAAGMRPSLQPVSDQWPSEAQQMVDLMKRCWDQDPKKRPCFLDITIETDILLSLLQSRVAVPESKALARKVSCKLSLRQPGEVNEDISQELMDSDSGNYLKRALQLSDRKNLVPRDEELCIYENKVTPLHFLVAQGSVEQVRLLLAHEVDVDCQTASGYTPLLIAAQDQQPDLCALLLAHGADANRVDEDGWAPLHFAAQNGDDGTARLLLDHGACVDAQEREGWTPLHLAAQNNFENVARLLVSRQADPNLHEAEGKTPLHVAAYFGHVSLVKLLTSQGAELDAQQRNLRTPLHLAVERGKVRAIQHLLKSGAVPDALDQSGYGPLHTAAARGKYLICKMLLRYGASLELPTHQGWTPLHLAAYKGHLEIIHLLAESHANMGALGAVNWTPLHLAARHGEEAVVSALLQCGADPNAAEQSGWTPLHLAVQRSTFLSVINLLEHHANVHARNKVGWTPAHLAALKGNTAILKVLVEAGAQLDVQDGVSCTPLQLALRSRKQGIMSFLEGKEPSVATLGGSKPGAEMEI

[27] = molecular target: Macrophage-stimulating protein receptor (Homo sapiens) (UniProt Q04912); details: Compound concentration 1000.0 nM
[28] = molecular target: Receptor tyrosine-protein kinase erbB-2 (Homo sapiens) (UniProt P04626); details: Compound concentration 1000.0 nM
[29] = molecular target: 5-hydroxytryptamine receptor 5A (Homo sapiens) (UniProt P47898); details: Compound concentration 10.0 uM
[30] = molecular target: Focal adhesion kinase 1 (Homo sapiens) (UniProt Q05397); details: Compound concentration 1000.0 nM
[31] = molecular target: Hormonally up-regulated neu tumor-associated kinase (Homo sapiens) (UniProt P57058); details: Compound concentration 1000.0 nM
Hormonally up-regulated neu tumor-associated kinase (Homo sapiens), sequence (P57058 whole entry): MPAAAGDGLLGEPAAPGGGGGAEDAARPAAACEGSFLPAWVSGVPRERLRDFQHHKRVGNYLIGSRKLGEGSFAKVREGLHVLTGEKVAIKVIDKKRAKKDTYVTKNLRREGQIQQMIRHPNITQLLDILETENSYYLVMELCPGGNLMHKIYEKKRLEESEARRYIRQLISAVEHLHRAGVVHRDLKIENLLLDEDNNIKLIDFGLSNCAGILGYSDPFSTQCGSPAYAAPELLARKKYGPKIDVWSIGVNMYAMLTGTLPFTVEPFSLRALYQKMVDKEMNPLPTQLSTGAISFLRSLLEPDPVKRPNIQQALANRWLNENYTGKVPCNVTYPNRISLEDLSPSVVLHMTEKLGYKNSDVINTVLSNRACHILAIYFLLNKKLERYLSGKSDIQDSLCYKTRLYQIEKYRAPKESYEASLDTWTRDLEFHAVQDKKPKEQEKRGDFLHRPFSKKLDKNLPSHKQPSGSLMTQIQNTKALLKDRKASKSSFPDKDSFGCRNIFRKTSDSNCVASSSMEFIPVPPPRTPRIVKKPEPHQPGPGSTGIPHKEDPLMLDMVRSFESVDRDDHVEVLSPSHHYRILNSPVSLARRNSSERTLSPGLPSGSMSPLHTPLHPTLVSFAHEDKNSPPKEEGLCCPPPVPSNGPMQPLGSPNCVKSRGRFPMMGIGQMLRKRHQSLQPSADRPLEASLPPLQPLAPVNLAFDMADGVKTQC

[32] = molecular target: Tyrosine-protein kinase ABL1 (Homo sapiens) (UniProt P00519); details: Compound concentration 1000.0 nM
[33] = molecular target: Dual specificity tyrosine-phosphorylation-regulated kinase 1B (Homo sapiens) (UniProt Q9Y463); details: Compound concentration 1000.0 nM
[34] = molecular target: Ribosomal protein S6 kinase alpha-5 (Homo sapiens) (UniProt O75582); details: Compound concentration 1000.0 nM
[35] = molecular target: Myosin light chain kinase 2, skeletal/cardiac muscle (Homo sapiens) (UniProt Q9H1R3); details: Compound concentration 1000.0 nM
[36] = system: Fibroblast growth factor receptor 3 (Homo sapiens), P22607 [G697C]; details: Compound concentration 1000.0 nM
[37] = molecular target: Mitogen-activated protein kinase 13 (Homo sapiens) (UniProt O15264); details: Compound concentration 1000.0 nM
Mitogen-activated protein kinase 13 (Homo sapiens), sequence (O15264 whole entry): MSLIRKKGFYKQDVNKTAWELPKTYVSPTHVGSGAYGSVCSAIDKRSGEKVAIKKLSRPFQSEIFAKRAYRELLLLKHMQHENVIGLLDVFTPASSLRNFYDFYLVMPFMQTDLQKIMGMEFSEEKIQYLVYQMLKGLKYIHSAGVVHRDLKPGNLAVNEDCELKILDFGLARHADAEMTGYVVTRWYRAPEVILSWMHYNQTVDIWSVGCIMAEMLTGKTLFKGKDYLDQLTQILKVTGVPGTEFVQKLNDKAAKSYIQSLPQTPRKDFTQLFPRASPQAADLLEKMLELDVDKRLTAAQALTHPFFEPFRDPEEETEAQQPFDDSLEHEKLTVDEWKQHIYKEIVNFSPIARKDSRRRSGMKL

[38] = molecular target: Mu-type opioid receptor (Homo sapiens) (UniProt P35372); details: Compound concentration 10.0 uM
[39] = molecular target: Mitogen-activated protein kinase kinase kinase 1 (Homo sapiens) (UniProt Q13233); details: Compound concentration 1000.0 nM
Mitogen-activated protein kinase kinase kinase 1 (Homo sapiens), sequence (Q13233 whole entry): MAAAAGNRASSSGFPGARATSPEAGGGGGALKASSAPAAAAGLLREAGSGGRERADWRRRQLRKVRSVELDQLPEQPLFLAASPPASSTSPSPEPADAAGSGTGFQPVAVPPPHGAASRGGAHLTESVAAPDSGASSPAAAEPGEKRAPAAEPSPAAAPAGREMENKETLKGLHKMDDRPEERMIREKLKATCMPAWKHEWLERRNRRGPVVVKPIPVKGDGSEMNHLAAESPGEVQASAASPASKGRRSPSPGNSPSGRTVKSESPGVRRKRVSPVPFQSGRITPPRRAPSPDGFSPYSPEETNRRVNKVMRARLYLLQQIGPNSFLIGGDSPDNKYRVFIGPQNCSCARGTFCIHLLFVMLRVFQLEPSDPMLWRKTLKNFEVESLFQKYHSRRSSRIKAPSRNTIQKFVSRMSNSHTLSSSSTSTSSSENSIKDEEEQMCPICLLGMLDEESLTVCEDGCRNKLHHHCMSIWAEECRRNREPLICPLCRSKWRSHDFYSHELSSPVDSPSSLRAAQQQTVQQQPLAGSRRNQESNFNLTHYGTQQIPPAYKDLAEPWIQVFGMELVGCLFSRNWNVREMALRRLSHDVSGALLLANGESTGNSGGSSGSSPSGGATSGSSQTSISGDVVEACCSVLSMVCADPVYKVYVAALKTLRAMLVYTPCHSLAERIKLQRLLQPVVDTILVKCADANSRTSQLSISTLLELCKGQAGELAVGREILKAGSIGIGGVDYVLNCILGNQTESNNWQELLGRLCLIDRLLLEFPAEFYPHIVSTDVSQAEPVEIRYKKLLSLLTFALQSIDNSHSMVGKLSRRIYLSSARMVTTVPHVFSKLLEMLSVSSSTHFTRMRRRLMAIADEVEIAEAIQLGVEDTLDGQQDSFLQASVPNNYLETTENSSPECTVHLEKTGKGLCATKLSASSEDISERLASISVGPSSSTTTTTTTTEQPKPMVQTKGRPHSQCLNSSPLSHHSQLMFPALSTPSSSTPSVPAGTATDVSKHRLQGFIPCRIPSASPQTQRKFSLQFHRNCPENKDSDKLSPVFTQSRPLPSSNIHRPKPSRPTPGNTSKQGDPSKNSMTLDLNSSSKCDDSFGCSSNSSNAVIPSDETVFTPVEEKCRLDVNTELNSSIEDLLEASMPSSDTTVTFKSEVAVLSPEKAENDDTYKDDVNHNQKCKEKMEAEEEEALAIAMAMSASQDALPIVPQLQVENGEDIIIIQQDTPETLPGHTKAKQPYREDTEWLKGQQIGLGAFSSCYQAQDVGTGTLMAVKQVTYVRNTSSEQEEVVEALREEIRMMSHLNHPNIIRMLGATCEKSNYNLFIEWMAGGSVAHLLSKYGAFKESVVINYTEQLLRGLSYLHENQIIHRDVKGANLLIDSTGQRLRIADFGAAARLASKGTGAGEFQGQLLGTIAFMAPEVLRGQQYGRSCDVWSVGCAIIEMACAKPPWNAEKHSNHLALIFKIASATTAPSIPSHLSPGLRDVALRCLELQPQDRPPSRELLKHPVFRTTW

[40] = molecular target: Calcium/calmodulin-dependent protein kinase type II subunit beta (Homo sapiens) (UniProt Q13554); details: Compound concentration 1000.0 nM
[41] = molecular target: Homeodomain-interacting protein kinase 4 (Homo sapiens) (UniProt Q8NE63); details: Compound concentration 1000.0 nM
Homeodomain-interacting protein kinase 4 (Homo sapiens), sequence (Q8NE63 whole entry): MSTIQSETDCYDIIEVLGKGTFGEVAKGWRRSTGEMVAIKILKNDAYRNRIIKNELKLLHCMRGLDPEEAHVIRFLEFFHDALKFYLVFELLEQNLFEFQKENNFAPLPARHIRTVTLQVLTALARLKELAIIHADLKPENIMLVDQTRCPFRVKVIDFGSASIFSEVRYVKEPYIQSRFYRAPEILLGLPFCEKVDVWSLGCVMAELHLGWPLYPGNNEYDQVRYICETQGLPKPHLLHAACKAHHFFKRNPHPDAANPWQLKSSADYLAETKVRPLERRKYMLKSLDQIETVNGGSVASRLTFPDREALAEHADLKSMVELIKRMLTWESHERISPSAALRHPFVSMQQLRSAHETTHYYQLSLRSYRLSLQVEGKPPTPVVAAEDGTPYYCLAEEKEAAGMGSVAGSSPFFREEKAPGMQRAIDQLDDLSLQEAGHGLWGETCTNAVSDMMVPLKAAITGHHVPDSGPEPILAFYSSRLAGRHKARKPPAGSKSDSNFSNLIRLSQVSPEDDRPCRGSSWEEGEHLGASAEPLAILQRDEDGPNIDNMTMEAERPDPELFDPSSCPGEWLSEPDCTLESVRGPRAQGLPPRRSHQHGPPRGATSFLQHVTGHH

[42] = molecular target: Serine/threonine-protein kinase mTOR (Homo sapiens) (UniProt P42345); details: Compound concentration 1000.0 nM
[43] = molecular target: Cyclin-dependent kinase-like 5 (Homo sapiens) (UniProt O76039); details: Compound concentration 1000.0 nM
[44] = molecular target: Fibroblast growth factor receptor 1 (Homo sapiens) (UniProt P11362); details: Compound concentration 1000.0 nM
[45] = molecular target: Dual specificity tyrosine-phosphorylation-regulated kinase 2 (Homo sapiens) (UniProt Q92630); details: Compound concentration 1000.0 nM
Dual specificity tyrosine-phosphorylation-regulated kinase 2 (Homo sapiens), sequence (Q92630 whole entry): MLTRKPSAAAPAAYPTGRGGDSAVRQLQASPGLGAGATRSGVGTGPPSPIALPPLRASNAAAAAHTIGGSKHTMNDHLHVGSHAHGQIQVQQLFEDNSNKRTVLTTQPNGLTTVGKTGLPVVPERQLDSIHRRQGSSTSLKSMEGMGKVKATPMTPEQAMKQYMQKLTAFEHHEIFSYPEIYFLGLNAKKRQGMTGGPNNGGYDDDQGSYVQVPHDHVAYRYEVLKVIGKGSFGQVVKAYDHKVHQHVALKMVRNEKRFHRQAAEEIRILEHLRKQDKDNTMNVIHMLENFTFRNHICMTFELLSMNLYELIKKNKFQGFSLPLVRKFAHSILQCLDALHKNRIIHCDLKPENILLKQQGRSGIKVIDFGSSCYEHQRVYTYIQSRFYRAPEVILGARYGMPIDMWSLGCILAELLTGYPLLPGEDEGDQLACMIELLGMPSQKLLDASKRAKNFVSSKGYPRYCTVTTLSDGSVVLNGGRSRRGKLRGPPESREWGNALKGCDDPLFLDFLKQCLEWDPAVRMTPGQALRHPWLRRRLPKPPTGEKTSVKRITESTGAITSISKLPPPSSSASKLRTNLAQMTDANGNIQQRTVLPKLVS

N#Cc1ccc(Nc2ccc3[nH]c(=O)[nH]c3c2)c(Cl)c1
inactive: residual activity [1] 94% | residual activity [2] 100% | residual activity [3] 91% | residual activity [4] 100% | residual activity [5] 100% | residual activity [6] 100% | residual activity [7] 100% | residual activity [8] 100% | residual activity [9] 100% | residual activity [10] 100% | inhibition [11] 4.16% | residual activity [12] 100% | residual activity [13] 90% | residual activity [14] 82% | residual activity [15] 100% | residual activity [16] 90% | residual activity [17] 100% | residual activity [18] 89% | residual activity [19] 70% | residual activity [20] 96% | residual activity [21] 100% | residual activity [22] 96% | residual activity [23] 93% | residual activity [24] 87% | residual activity [25] 100% | residual activity [26] 100% | residual activity [27] 100% | residual activity [28] 100% | inhibition [29] -7.6% | residual activity [30] 100% | residual activity [31] 98% | residual activity [32] 100% | residual activity [33] 83% | residual activity [34] 100% | residual activity [35] 99% | residual activity [36] 93% | residual activity [37] 100% | inhibition [38] 0.37% | residual activity [39] 79% | residual activity [40] 91% | residual activity [41] 100% | residual activity [42] 98% | residual activity [43] 100% | residual activity [44] 100% | residual activity [45] 85%

O=C1CCc2cc(Nc3cc(OC4CCOCC4)c([N+](=O)[O-])cc3Cl)ccc2N1
inactive: residual activity [1] 100% | residual activity [2] 100% | residual activity [3] 100% | residual activity [4] 100% | residual activity [5] 100% | residual activity [6] 100% | residual activity [7] 100% | residual activity [8] 94% | residual activity [9] 100% | residual activity [10] 84% | inhibition [11] -0.13% | residual activity [12] 100% | residual activity [13] 99% | residual activity [14] 83% | residual activity [15] 100% | residual activity [16] 100% | residual activity [17] 100% | residual activity [18] 98% | residual activity [19] 71% | residual activity [20] 80% | residual activity [21] 100% | residual activity [22] 100% | residual activity [23] 100% | residual activity [24] 100% | residual activity [25] 100% | residual activity [26] 82% | residual activity [27] 100% | residual activity [28] 100% | inhibition [29] 6.14% | residual activity [30] 100% | residual activity [31] 93% | residual activity [32] 98% | residual activity [33] 74% | residual activity [34] 86% | residual activity [35] 90% | residual activity [36] 79% | residual activity [37] 100% | inhibition [38] 1.31% | residual activity [39] 65% | residual activity [40] 90% | residual activity [41] 98% | residual activity [42] 89% | residual activity [43] 99% | residual activity [44] 93% | residual activity [45] 97%
